In patent US10537558B2 (Bantam Pharmaceutical, LLC, priority 2015, dated 2020):

Tested on: BJAB cells
Assay: BJAB cell proliferation (Cell Titer Glo)
Format: cell-based
Conditions: not given
Procedure, shortened: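 EC50 values come from non-linear regression of luminescence (Cell Titer Glo), expressed relative to untreated wells. BJAB cells were incubated roughly 72 h at 37 °C with serial compound dilutions carrying 0.1% final DMSO.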

Row | Compound | EC50
1 | Cc1nn(-c2nc(-c3ccc(Cl)c(Cl)c3)c(SC(C)C)s2)c(C(=O)O)c1-c1cccc(F)c1 [Compound 151, 1-(4-(3,4-dichlorophenyl)-5-(isopropylthio)thiazol-2-yl)-4-(3-fluorophenyl)-3-methyl-1H-pyrazole-5-carboxylic Acid] | A, B

Same assay, conditions: Homo sapiens, read-out: EC50

Row | Compound | EC50 [µM]
2 | Cc1nn(-c2nc(-c3ccc(Cl)c(Cl)c3)c(SC(C)C)s2)c(C(=O)N2CCC(CO)CC2)c1-c1cc(C(F)(F)F)cc(C(F)(F)F)c1 [Compound 141, (4-(3,5-bis(trifluoromethyl)phenyl)-1-(4-(3,4-dichlorophenyl)-5-(isopropylthio)thiazol-2-yl)-3-methyl-1H-pyrazol-5-yl)(4-(hydroxymethyl)piperidin-1-yl)methanone] | > 40
3 | Cc1nn(-c2nc(-c3ccc(Cl)c(Cl)c3)c(CC(C)C)s2)c(C(=O)O)c1-c1cnn(C)c1 [Compound 142, 1-(4-(3,4-dichlorophenyl)-5-isobutylthiazol-2-yl)-1′,3-dimethyl-1H,1′H-[4,4′-bipyrazole]-5-carboxylic Acid] | 1 to 5
4 | Cc1cc(C)cc(-c2c(C)nn(-c3nc(-c4ccc(Cl)c(Cl)c4)c(SC(C)C)s3)c2C(=O)O)c1 [Compound 143, 1-(4-(3,4-dichlorophenyl)-5-(isopropylthio)thiazol-2-yl)-4-(3,5-dimethylphenyl)-3-methyl-1H-pyrazole-5-carboxylic Acid] | 1 to 5
5 | Cc1nn(-c2nc(-c3ccc(Cl)c(Cl)c3)c(SC(C)C)s2)c(C(=O)O)c1-c1cc(Cl)cc(Cl)c1 [Compound 144, 4-(3,5-dichlorophenyl)-1-(4-(3,4-dichlorophenyl)-5-(isopropylthio)thiazol-2-yl)-3-methyl-1H-pyrazole-5-carboxylic Acid] | < 1
6 | COc1cc(Cl)cc(-c2c(C)nn(-c3nc(-c4ccc(Cl)c(Cl)c4)c(SC(C)C)s3)c2C(=O)O)c1 [Compound 145, 4-(3-chloro-5-methoxyphenyl)-1-(4-(3,4-dichlorophenyl)-5-(isopropylthio)thiazol-2-yl)-3-methyl-1H-pyrazole-5-carboxylic Acid] | 1 to 5
7 | COc1cc(-c2c(C)nn(-c3nc(-c4ccc(Cl)c(Cl)c4)c(SC(C)C)s3)c2C(=O)O)cc(C(F)(F)F)c1 [Compound 146, 1-(4-(3,4-dichlorophenyl)-5-(isopropylthio)thiazol-2-yl)-4-(3-methoxy-5-(trifluoromethyl)phenyl)-3-methyl-1H-pyrazole-5-carboxylic Acid] | 1 to 5
8 | Cc1cc(Cl)cc(-c2c(C)nn(-c3nc(-c4ccc(Cl)c(Cl)c4)c(SC(C)C)s3)c2C(=O)O)c1 [Compound 147, 4-(3-chloro-5-methylphenyl)-1-(4-(3,4-dichlorophenyl)-5-(isopropylthio)thiazol-2-yl)-3-methyl-1H-pyrazole-5-carboxylic Acid] | < 1
9 | Cc1nn(-c2nc(-c3ccc(Cl)c(Cl)c3)c(SC(C)C)s2)c(C(=O)NS(C)(=O)=O)c1-c1cc(C(F)(F)F)cc(C(F)(F)F)c1 [Compound 148, 4-(3,5-bis(trifluoromethyl)phenyl)-1-(4-(3,4-dichlorophenyl)-5-(isopropylthio)thiazol-2-yl)-3-methyl-N-(methylsulfonyl)-1H-pyrazole-5-carboxamide] | > 40
10 | Cc1nn(-c2nc(-c3ccc(Cl)c(Cl)c3)c(SC(C)C)s2)c(C(=O)O)c1-c1cnc2ccccn12 [Compound 149, 1-(4-(3,4-dichlorophenyl)-5-(isopropylthio)thiazol-2-yl)-4-(imidazo[1,2-a]pyridin-3-yl)-3-methyl-1H-pyrazole-5-carboxylic acid] | 5 to 10
11 | Cc1nn(-c2nc(-c3ccc(Cl)c(Cl)c3)c(SC(C)C)s2)c(C(=O)O)c1-c1cc(O)cc(F)c1 [Compound 152, 1-(4-(3,4-dichlorophenyl)-5-(isopropylthio)thiazol-2-yl)-4-(3-fluoro-5-hydroxyphenyl)-3-methyl-1H-pyrazole-5-carboxylic Acid] | 5 to 10
12 | Cc1cc(N)cc(-c2c(C)nn(-c3nc(-c4ccc(Cl)c(Cl)c4)c(SC(C)C)s3)c2C(=O)O)c1 [Compound 153, 4-(3-amino-5-methylphenyl)-1-(4-(3,4-dichlorophenyl)-5-(isopropylthio)thiazol-2-yl)-3-methyl-1H-pyrazole-5-carboxylic acid] | > 25
13 | Cc1nn(-c2nc(-c3ccc(Cl)c(Cl)c3)c(SC(C)C)s2)c(C(=O)O)c1-c1cc(O)cc(Cl)c1 [Compound 154, 4-(3-chloro-5-hydroxyphenyl)-1-(4-(3,4-dichlorophenyl)-5-(isopropylthio)thiazol-2-yl)-3-methyl-1H-pyrazole-5-carboxylic Acid] | 10 to 25
14 | Cc1nn(-c2nc(-c3ccc(Cl)c(Cl)c3)c(SC(C)C)s2)c(C(=O)O)c1-c1cccc2ccn(C)c12 [Compound 155, 1-(4-(3,4-dichlorophenyl)-5-(isopropylthio)thiazol-2-yl)-3-methyl-4-(1-methyl-1H-indol-7-yl)-1H-pyrazole-5-carboxylic Acid] | 5 to 10
15 | CC(C)Sc1sc(-n2cccn2)nc1-c1ccc(Cl)c(Cl)c1 [Compound 156, 4-(3,4-dichlorophenyl)-5-(isopropylthio)-2-(1H-pyrazol-1-yl)thiazole] | > 25
16 | Cc1cc(-c2c(C)nn(-c3nc(-c4ccccc4Cl)c(SC(C)C)s3)c2C(=O)O)cc(C)n1 [Compound 157, 1-(4-(2-chlorophenyl)-5-(isopropylthio)thiazol-2-yl)-4-(2,6-dimethylpyridin-4-yl)-3-methyl-1H-pyrazole-5-carboxylic Acid] | 1 to 5
17 | Cc1cc(-c2c(C)nn(-c3nc(-c4cccc(Cl)c4)c(SC(C)C)s3)c2C(=O)O)cc(C)n1 [Compound 158, 1-(4-(3-chlorophenyl)-5-(isopropylthio)thiazol-2-yl)-4-(2,6-dimethylpyridin-4-yl)-3-methyl-1H-pyrazole-5-carboxylic Acid] | 5 to 10
18 | Cc1cc(-c2c(C)nn(-c3nc(-c4ccc(Cl)cc4)c(SC(C)C)s3)c2C(=O)O)cc(C)n1 [Compound 159, 1-(4-(4-chlorophenyl)-5-(isopropylthio)thiazol-2-yl)-4-(2,6-dimethylpyridin-4-yl)-3-methyl-1H-pyrazole-5-carboxylic Acid] | < 1
19 | Cc1cc(-c2c(C)nn(-c3nc(-c4ccc(Cl)cc4Cl)c(SC(C)C)s3)c2C(=O)O)cc(C)n1 [Compound 160, 1-(4-(2,4-dichlorophenyl)-5-(isopropylthio)thiazol-2-yl)-4-(2,6-dimethylpyridin-4-yl)-3-methyl-1H-pyrazole-5-carboxylic Acid] | < 1
20 | Cc1cc(-c2c(C)nn(-c3nc(-c4cc(Cl)ccc4Cl)c(SC(C)C)s3)c2C(=O)O)cc(C)n1 [Compound 161, 1-(4-(2,5-dichlorophenyl)-5-(isopropylthio)thiazol-2-yl)-4-(2,6-dimethylpyridin-4-yl)-3-methyl-1H-pyrazole-5-carboxylic acid] | 5 to 10
21 | Cc1cc(-c2c(C)nn(-c3nc(C#Cc4ccccc4)c(SC(C)C)s3)c2C(=O)O)cc(C)n1 [Compound 162, 4-(2,6-dimethylpyridin-4-yl)-1-(5-(isopropylthio)-4-(phenylethynyl)thiazol-2-yl)-3-methyl-1H-pyrazole-5-carboxylic acid] | 5 to 10
22 | Cc1cc(-c2c(C)nn(-c3nc(Cc4ccccc4)c(SC(C)C)s3)c2C(=O)O)cc(C)n1 [Compound 163, 1-(4-benzyl-5-(isopropylthio)thiazol-2-yl)-4-(2,6-dimethylpyridin-4-yl)-3-methyl-1H-pyrazole-5-carboxylic acid] | 10 to 25
23 | COc1cc(F)cc(-c2c(C)nn(-c3nc(-c4ccc(Cl)c(Cl)c4)c(SC(C)C)s3)c2C(=O)O)c1 [Compound 164, 1-(4-(3,4-dichlorophenyl)-5-(isopropylthio)thiazol-2-yl)-4-(3-fluoro-5-methoxyphenyl)-3-methyl-1H-pyrazole-5-carboxylic Acid] | 1 to 5
24 | COc1cc(C)cc(-c2c(C)nn(-c3nc(-c4ccc(Cl)c(Cl)c4)c(SC(C)C)s3)c2C(=O)O)c1 [Compound 165, 1-(4-(3,4-dichlorophenyl)-5-(isopropylthio)thiazol-2-yl)-4-(3-methoxy-5-methylphenyl)-3-methyl-1H-pyrazole-5-carboxylic Acid] | 1 to 5
25 | COc1cc(-c2c(C)nn(-c3nc(-c4ccc(Cl)c(Cl)c4)c(SC(C)C)s3)c2C(=O)O)ccn1 [Compound 166, 1-(4-(3,4-dichlorophenyl)-5-(isopropylthio)thiazol-2-yl)-4-(2-methoxypyridin-4-yl)-3-methyl-1H-pyrazole-5-carboxylic acid] | 5 to 10
26 | Cc1cc(-c2c(C)nn(-c3nc(-c4ccc(Cl)c(Cl)c4)c(SC(C)C)s3)c2C(=O)O)ccn1 [Compound 167, 1-(4-(3,4-dichlorophenyl)-5-(isopropylthio)thiazol-2-yl)-3-methyl-4-(2-methylpyridin-4-yl)-1H-pyrazole-5-carboxylic Acid] | 1 to 5
27 | Cc1nn(-c2nc(-c3cccc4[nH]ccc34)c(SC(C)C)s2)c(C(=O)O)c1-c1cccc(F)c1 [Compound 168, 1-(4-(1H-indol-4-yl)-5-(isopropylthio)thiazol-2-yl)-4-(3-fluorophenyl)-3-methyl-1H-pyrazole-5-carboxylic acid] | > 25
28 | Cc1nn(-c2nc(-c3cccc(F)c3)c(SC(C)C)s2)c(C(=O)O)c1-c1cccc2[nH]ccc12 [Compound 169, 1-(4-(3-fluorophenyl)-5-(isopropylthio)thiazol-2-yl)-4-(1H-indol-4-yl)-3-methyl-1H-pyrazole-5-carboxylic acid] | > 25
29 | Cc1nn(-c2nc(-c3ccc4[nH]ccc4c3)c(SC(C)C)s2)c(C(=O)O)c1-c1cccc(F)c1 [Compound 170, 1-(4-(1H-indol-5-yl)-5-(isopropylthio)thiazol-2-yl)-4-(3-fluorophenyl)-3-methyl-1H-pyrazole-5-carboxylic acid] | > 25
30 | Cc1nn(-c2nc(C#CC3CC3)c(SC(C)C)s2)c(C(=O)O)c1-c1cccc(F)c1 [Compound 171, 1-(4-(cyclopropylethynyl)-5-(isopropylthio)thiazol-2-yl)-4-(3-fluorophenyl)-3-methyl-1H-pyrazole-5-carboxylic acid] | > 25
